≈ marks a conversion by molar mass, not a printed value. Calls of active or inactive are those of the source.
How the values were obtained:
Staphylococcus aureus [1] = assay: Inhibition of FabB/FabF in methicillin-sensitive Staphylococcus aureus assessed as antibacterial activity after 16 hrs by agar dilution method
Staphylococcus aureus [2] = assay: Inhibition of FabB/FabF in Staphylococcus aureus ATCC 29213 assessed as antibacterial activity after 16 hrs by agar dilution method
Staphylococcus aureus [3] = assay: Inhibition of FabB/FabF in methicillin-resistant Staphylococcus aureus assessed as antibacterial activity after 16 hrs by agar dilution method
Staphylococcus aureus [4] = assay: Inhibition of FabB/FabF in methicillin-resistant Staphylococcus aureus assessed as antibacterial activity at 5 ug/disk after 18 hrs by agar disk diffusion method
Staphylococcus aureus [5] = assay: Antibacterial activity against methicillin-resistant Staphylococcus aureus infected in C57BL/6J mouse model of peritonitis assessed as mouse survival at 10 mg/kg, ip dosed at 1 hr and 5 hrs post infection and measured for 7 days relative to control; assay type: functional
Staphylococcus aureus [6] = assay: Inhibition of FabB/FabF in methicillin-resistant Staphylococcus aureus assessed as antibacterial activity at 2 ug/disk after 18 hrs by agar disk diffusion method
Staphylococcus aureus [7] = assay: Antibacterial activity against methicillin-resistant Staphylococcus aureus infected in C57BL/6J mouse model of peritonitis assessed as mouse survival at 20 mg/kg, ip dosed at 1 hr and 5 hrs post infection and measured for 7 days relative to control; assay type: functional

C[C@]12C[C@]34C[C@H]1C[C@H](O2)[C@H]3[C@](C)(CCC(=O)Nc1c(O)ccc(C(=O)O)c1O)C(=O)[C@@H]1O[C@@H]14 gave an MIC (Staphylococcus aureus [1]) of 16 µg/mL (≈ 35 µM), an MIC (Staphylococcus aureus [2]) of 32 µg/mL (≈ 69.9 µM) and an MIC (Staphylococcus aureus [3]) of 16 µg/mL (≈ 35 µM).

With CC(=O)NC[C@H]1CN(c2ccc(N3CCOCC3)c(F)c2)C(=O)O1 the MIC (Staphylococcus aureus [1]) was 1 µg/mL (≈ 2.96 µM), the MIC (Staphylococcus aureus [2]) was 1 µg/mL (≈ 2.96 µM) and the MIC (Staphylococcus aureus [3]) was 1 µg/mL (≈ 2.96 µM). For the same compound, the “antibacterial activity (disk diffusion, qualitative)” value (“antibacterial activity” for short) (Staphylococcus aureus [4]) was “Active”.

Work on C[C@]12C[C@@]34C=C(Sc5ccc(F)cc5)C(=O)[C@@](C)(CCC(=O)Nc5c(O)ccc(C(=O)O)c5O)[C@@H]3[C@H](C[C@@H]1C4)O2 yielded an MIC (Staphylococcus aureus [1]) of 0.5 µg/mL (≈ 0.881 µM), an MIC (Staphylococcus aureus [2]) of 1 µg/mL (≈ 1.76 µM) and an MIC (Staphylococcus aureus [3]) of 0.5 µg/mL (≈ 0.881 µM). For the same compound, the “antibacterial activity” value (Staphylococcus aureus [4]) was “Active”.

Compound Cc1ccc(SC2=C[C@]34C[C@H]5C[C@H](O[C@@]5(C)C3)[C@H]4[C@](C)(CCC(=O)Nc3c(O)ccc(C(=O)O)c3O)C2=O)cc1 has an MIC (Staphylococcus aureus [1]) of 0.25 µg/mL (≈ 0.444 µM), an MIC (Staphylococcus aureus [2]) of 0.5 µg/mL (≈ 0.887 µM) and a survival at 10 mg/kg (Staphylococcus aureus [5]) of over 60%. The inhibition (Staphylococcus aureus [6]) was “Active”, the MIC (Staphylococcus aureus [3]) was 0.25 µg/mL (≈ 0.444 µM) and the survival at 20 mg/kg (Staphylococcus aureus [7]) was 80%. The “antibacterial activity” value (Staphylococcus aureus [4]) was “Active”.

For CCCSC1=C[C@]23C[C@H]4C[C@H](O[C@@]4(C)C2)[C@H]3[C@](C)(CCC(=O)Nc2c(O)ccc(C(=O)O)c2O)C1=O, the MIC (Staphylococcus aureus [1]) was 0.5 µg/mL (≈ 0.97 µM), the MIC (Staphylococcus aureus [2]) was 1 µg/mL (≈ 1.94 µM) and the MIC (Staphylococcus aureus [3]) was 0.5 µg/mL (≈ 0.97 µM). For the same compound, the “antibacterial activity” value (Staphylococcus aureus [4]) was “Active”.

C[C@]12C[C@@]34C=C(SCc5ccccc5)C(=O)[C@@](C)(CCC(=O)Nc5c(O)ccc(C(=O)O)c5O)[C@@H]3[C@H](C[C@@H]1C4)O2 gave an MIC (Staphylococcus aureus [1]) of 0.5 µg/mL (≈ 0.887 µM), an MIC (Staphylococcus aureus [2]) of 0.5 µg/mL (≈ 0.887 µM) and a survival at 10 mg/kg (Staphylococcus aureus [5]) of over 60%. For the same compound, the MIC (Staphylococcus aureus [3]) was 0.5 µg/mL (≈ 0.887 µM), the survival at 20 mg/kg (Staphylococcus aureus [7]) was 80% and the “antibacterial activity” value (Staphylococcus aureus [4]) was “Active”.

With COc1ccc(C#Cc2cccc(SC3=C[C@]45C[C@H]6C[C@H](O[C@@]6(C)C4)[C@H]5[C@](C)(CCC(=O)Nc4c(O)ccc(C(=O)O)c4O)C3=O)c2)cc1 the “antibacterial activity” value (Staphylococcus aureus [4]) was “Active”.

For C[C@]12C[C@@]34C=C(Sc5ccc(-c6cccnc6)cc5)C(=O)[C@@](C)(CCC(=O)Nc5c(O)ccc(C(=O)O)c5O)[C@@H]3[C@H](C[C@@H]1C4)O2, the “antibacterial activity” value (Staphylococcus aureus [4]) was “Active”.

In the case of C[C@]12C[C@@]34C=C(Sc5cccc(C#Cc6ccccn6)c5)C(=O)[C@@](C)(CCC(=O)Nc5c(O)ccc(C(=O)O)c5O)[C@@H]3[C@H](C[C@@H]1C4)O2, the MIC (Staphylococcus aureus [1]) is reported as 0.5 µg/mL (≈ 0.768 µM), the MIC (Staphylococcus aureus [2]) is reported as 0.5 µg/mL (≈ 0.768 µM) and the MIC (Staphylococcus aureus [3]) is reported as 0.5 µg/mL (≈ 0.768 µM). The “antibacterial activity” value (Staphylococcus aureus [4]) was “Active”.

For C[C@]12C[C@@]34C=C(Sc5ccc(N)cc5)C(=O)[C@@](C)(CCC(=O)Nc5c(O)ccc(C(=O)O)c5O)[C@@H]3[C@H](C[C@@H]1C4)O2, the “antibacterial activity” value (Staphylococcus aureus [4]) was “Active”.

CCCCc1ccc(C#Cc2cccc(SC3=C[C@]45C[C@H]6C[C@H](O[C@@]6(C)C4)[C@H]5[C@](C)(CCC(=O)Nc4c(O)ccc(C(=O)O)c4O)C3=O)c2)cc1 was tested, and the “antibacterial activity” value (Staphylococcus aureus [4]) was “Active”.

C[C@]12C[C@@]34C=C(Sc5ccc(I)cc5)C(=O)[C@@](C)(CCC(=O)Nc5c(O)ccc(C(=O)O)c5O)[C@@H]3[C@H](C[C@@H]1C4)O2 gave an MIC (Staphylococcus aureus [1]) of 0.25 µg/mL (≈ 0.37 µM), an MIC (Staphylococcus aureus [2]) of 0.5 µg/mL (≈ 0.74 µM) and an MIC (Staphylococcus aureus [3]) of 0.25 µg/mL (≈ 0.37 µM). For the same compound, the “antibacterial activity” value (Staphylococcus aureus [4]) was “Active”.

With C[C@]12C[C@@]34C=C(Sc5cccc(-c6ccco6)c5)C(=O)[C@@](C)(CCC(=O)Nc5c(O)ccc(C(=O)O)c5O)[C@@H]3[C@H](C[C@@H]1C4)O2 the “antibacterial activity” value (Staphylococcus aureus [4]) was “Active”.

C[C@]12C[C@@]34C=C(Sc5ccc(C(=O)O)cc5)C(=O)[C@@](C)(CCC(=O)Nc5c(O)ccc(C(=O)O)c5O)[C@@H]3[C@H](C[C@@H]1C4)O2 was tested, and the “antibacterial activity” value (Staphylococcus aureus [4]) was “Active”.

In the case of C[C@]12C[C@@]34C=C(Sc5ccc(-c6ccco6)cc5)C(=O)[C@@](C)(CCC(=O)Nc5c(O)ccc(C(=O)O)c5O)[C@@H]3[C@H](C[C@@H]1C4)O2, the “antibacterial activity” value (Staphylococcus aureus [4]) is reported as “Active”.

For Cc1ccc(SC2=C[C@]34C[C@H]5C[C@H](O[C@@]5(C)C3)[C@H]4[C@](C)(CCC(=O)Nc3c(O)ccc(C(=O)O)c3O)C2=O)c(C)c1, the “antibacterial activity” value (Staphylococcus aureus [4]) was “Active”.

In the case of COc1ccccc1-c1ccc(SC2=C[C@]34C[C@H]5C[C@H](O[C@@]5(C)C3)[C@H]4[C@](C)(CCC(=O)Nc3c(O)ccc(C(=O)O)c3O)C2=O)cc1, the “antibacterial activity” value (Staphylococcus aureus [4]) is reported as “Active”.

With CCCCCC#Cc1cccc(SC2=C[C@]34C[C@H]5C[C@H](O[C@@]5(C)C3)[C@H]4[C@](C)(CCC(=O)Nc3c(O)ccc(C(=O)O)c3O)C2=O)c1 the “antibacterial activity” value (Staphylococcus aureus [4]) was “Active”.

Source: ChEMBL document CHEMBL4359841, “Late-Stage Functionalization of Platensimycin Leading to Multiple Analogues with Improved Antibacterial Activity in Vitro and in Vivo” (2019)
